Experimental data reported in PubChem BioAssay AID330 (DTP/NCI, 2004).
Values joined by “and” are separate entries in the source; they are usually repeats but may differ in a detail not shown here. Equal entries are not always repeated. Toxic doses and inconclusive results are not listed.

System: P388 leukemia ip, CD2F1 mice, survival T/C
Experiment: NCI In Vivo Anticancer Drug Screen. Data for tumor model P388 Leukemia (intraperitoneal) in CD2F1 (CDF1) mice
Details: endpoint: median survival time, higher = longer survival
How it was run: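 Mice carrying the transplanted tumor received test compound or vehicle. Survival was recorded in each group, and the value is the treated-group measurement divided by that of the vehicle-treated control group.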

[1] = dose: 50.0 mg/kg/injection, schedule: Q01DX009 (ip), vehicle: saline
[2] = dose: 100.0 mg/kg/injection, schedule: Q01DX009 (ip), vehicle: saline
[3] = dose: 12.5 mg/kg/injection, schedule: Q01DX005 (ip), vehicle: saline with Tween-80
[4] = dose: 25.0 mg/kg/injection, schedule: Q01DX005 (ip), vehicle: saline with Tween-80
[5] = dose: 50.0 mg/kg/injection, schedule: Q01DX005 (ip), vehicle: saline with Tween-80
[6] = dose: 60.0 mg/kg/injection, schedule: Q01DX005 (ip), vehicle: saline with Tween-80
[7] = dose: 120.0 mg/kg/injection, schedule: Q01DX005 (ip), vehicle: saline with Tween-80
[8] = dose: 100.0 mg/kg/injection, schedule: Q01DX009 (ip), vehicle: distilled water + Tween-80
[9] = dose: 200.0 mg/kg/injection, schedule: Q01DX009 (ip), vehicle: distilled water + Tween-80
[10] = dose: 6.25 mg/kg/injection, schedule: Q01DX009 (ip), vehicle: Klucel (hydroxypropylcellulose) (HPC)
[11] = dose: 12.5 mg/kg/injection, schedule: Q01DX009 (ip), vehicle: Klucel (hydroxypropylcellulose) (HPC)
[12] = dose: 25.0 mg/kg/injection, schedule: Q01DX009 (ip), vehicle: Klucel (hydroxypropylcellulose) (HPC)

`CCOC(=O)Nc1cc2c(c(N)n1)N=C(c1ccc(OC)cc1)CN2` was tested, and the T/C (dose: 1.5 mg/kg/injection, schedule: Q01DX009 (ip), vehicle: Klucel (hydroxypropylcellulose) (HPC)) was 105 % of control, the T/C (dose: 6.25 mg/kg/injection, schedule: Q01DX001 (ip), vehicle: Klucel (hydroxypropylcellulose) (HPC)) was 110 % of control and the T/C (dose: 6.25 mg/kg/injection, schedule: Q04DX003 (ip), vehicle: Klucel (hydroxypropylcellulose) (HPC)) was 110 % of control. For the same compound, the T/C (dose: 12.5 mg/kg/injection, schedule: Q04DX003 (ip), vehicle: Klucel (hydroxypropylcellulose) (HPC)) was 158 % of control, the T/C (dose: 25.0 mg/kg/injection, schedule: Q01DX001 (ip), vehicle: Klucel (hydroxypropylcellulose) (HPC)) was 150 % of control and the T/C (dose: 25.0 mg/kg/injection, schedule: Q04DX003 (ip), vehicle: Klucel (hydroxypropylcellulose) (HPC)) was 163 % of control.
In the case of `COc1cc2cc(-c3ccccc3)[n+](C)cc2cc1OC`, the T/C (dose: 12.5 mg/kg/injection, schedule: Q01DX001 (ip), vehicle: saline) was 95 % of control and the T/C (dose: 25.0 mg/kg/injection, schedule: Q01DX001 (ip), vehicle: saline) was 110 % of control.
`CC1CCC2(C(=O)O)CCC3(C)C(=CCC4C5(C)CC(O)C(O)C(C)(CO)C5C(O)CC43C)C2C1C` (stereo not drawn) was tested, and the T/C (dose: 25.0 mg/kg/injection, schedule: Q01DX005 (ip), vehicle: Klucel (hydroxypropylcellulose) (HPC)) was 90 % of control, the T/C (dose: 50.0 mg/kg/injection, schedule: Q01DX005 (ip), vehicle: Klucel (hydroxypropylcellulose) (HPC)) was 92 % of control and the T/C (dose: 100.0 mg/kg/injection, schedule: Q01DX005 (ip), vehicle: Klucel (hydroxypropylcellulose) (HPC)) was 95 % of control.
With `NNc1nncn1N` the T/C [1] was 104 % of control and 91 % of control, the T/C [2] was 104 % of control and 89 % of control and the T/C (dose: 200.0 mg/kg/injection, schedule: Q01DX009 (ip), vehicle: saline) was 86 % of control and 95 % of control.
In the case of `COc1cc(NCCN)c2ncsc2c1`, the T/C (dose: 50.0 mg/kg/injection, schedule: Q01DX005 (ip), vehicle: saline) was 100 % of control and the T/C (dose: 100.0 mg/kg/injection, schedule: Q01DX005 (ip), vehicle: saline) was 102 % of control.
With `CCCCCCCCCCCCCCCCCCCCCCCCC(O)C(=O)O` (stereo not drawn) (tested in a mixture with another compound) the T/C [3] was 106 % of control, the T/C [4] was 93 % of control and the T/C [5] was 87 % of control and 89 % of control. The T/C (dose: 200.0 mg/kg/injection, schedule: Q01DX005 (ip), vehicle: saline with Tween-80) was 87 % of control.
`Nc1ccccc1C(=O)CC1OC(=O)c2ccccc21` (stereo not drawn) was tested, and the T/C [6] was 105 % of control, the T/C [7] was 105 % of control and the T/C (dose: 240.0 mg/kg/injection, schedule: Q01DX005 (ip), vehicle: saline with Tween-80) was 97 % of control.
For `CCOC(=O)C1Cc2c([nH]c(=O)[nH]c2=O)OC1c1cccc(Cl)c1` (stereo not drawn), the T/C (dose: 3.12 mg/kg/injection, schedule: Q01DX009 (ip), vehicle: saline with Tween-80) was 94 % of control, the T/C (dose: 6.25 mg/kg/injection, schedule: Q01DX009 (ip), vehicle: saline with Tween-80) was 93 % of control and the T/C (dose: 12.5 mg/kg/injection, schedule: Q01DX009 (ip), vehicle: saline with Tween-80) was 96 % of control. For the same compound, the T/C (dose: 25.0 mg/kg/injection, schedule: Q01DX009 (ip), vehicle: saline with Tween-80) was 100 % of control.
In the case of `CCN(CC)CCNc1ccc(COC(C)=O)c2oc3ccccc3c(=O)c12`, the T/C (dose: 6.25 mg/kg/injection, schedule: Q01DX005 (ip), vehicle: saline with Tween-80) was 111 % of control and the T/C [3] was 118 % of control.
`COc1ccc(C(c2c(O)c3ccccc3oc2=O)N2CCOCC2)c(OC)c1` (stereo not drawn) was tested, and the T/C [6] was 99 % of control and the T/C [7] was 107 % of control.
With `O=C(NN=C1c2ccccc2-c2ccccc21)C(F)(F)F` the T/C (dose: 50.0 mg/kg/injection, schedule: Q01DX005 (ip), vehicle: Klucel + Tween-80) was 100 % of control, the T/C (dose: 100.0 mg/kg/injection, schedule: Q01DX005 (ip), vehicle: Klucel + Tween-80) was 100 % of control and the T/C (dose: 200.0 mg/kg/injection, schedule: Q01DX005 (ip), vehicle: Klucel + Tween-80) was 100 % of control.
For `O=c1[nH]c(=O)c2nc3c([N+](=O)[O-])ccc(-c4cccc5ccccc45)c3nc2[nH]1`, the T/C [1] was 109 % of control and the T/C [2] was 100 % of control.
`C/C=C/CC(/C(C)=N\[N+](C)(C)C)c1ccccc1` (stereo not drawn) was tested, and the T/C (dose: 100.0 mg/kg/injection, schedule: Q04DX003 (ip), vehicle: saline) was 107 % of control, the T/C (dose: 200.0 mg/kg/injection, schedule: Q04DX003 (ip), vehicle: saline) was 97 % of control and the T/C (dose: 400.0 mg/kg/injection, schedule: Q04DX003 (ip), vehicle: saline) was 99 % of control.
For `O=C(NO)c1cc(O)c(O)c(O)c1`, the T/C (dose: 50.0 mg/kg/injection, schedule: Q01DX005 (ip), vehicle: distilled water + Tween-80) was 121 % of control, the T/C [8] was 168 % of control and the T/C (dose: 200.0 mg/kg/injection, schedule: Q01DX005 (ip), vehicle: distilled water + Tween-80) was 155 % of control. For the same compound, the T/C [9] was 197 % of control.
For `CC(=O)NCC(O)CNC(C)=O`, the T/C (dose: 6.25 mg/kg/injection, schedule: Q01DX009 (ip), vehicle: saline) was 103 % of control, the T/C (dose: 12.5 mg/kg/injection, schedule: Q01DX009 (ip), vehicle: saline) was 97 % of control and the T/C (dose: 25.0 mg/kg/injection, schedule: Q01DX009 (ip), vehicle: saline) was 95 % of control.
In the case of `CN(N=O)C(=O)NCCCCCNC(=O)N(C)N=O`, the T/C (dose: 100.0 mg/kg/injection, schedule: Q04DX003 (ip), vehicle: saline with Tween-80) was 100 % of control, the T/C (dose: 200.0 mg/kg/injection, schedule: Q04DX003 (ip), vehicle: saline with Tween-80) was 104 % of control and the T/C (dose: 400.0 mg/kg/injection, schedule: Q01DX009 (ip), vehicle: saline with Tween-80) was 150 % of control and 163 % of control. The T/C (dose: 400.0 mg/kg/injection, schedule: Q04DX003 (ip), vehicle: saline with Tween-80) was 104 % of control and the T/C (dose: 600.0 mg/kg/injection, schedule: Q01DX009 (ip), vehicle: saline with Tween-80) was 163 % of control.
With `CN(C)/N=C/c1c[nH]c2ccccc12` the T/C [10] was 105 % of control, the T/C [11] was 103 % of control and the T/C [12] was 100 % of control. The T/C (dose: 50.0 mg/kg/injection, schedule: Q01DX009 (ip), vehicle: Klucel (hydroxypropylcellulose) (HPC)) was 118 % of control and the T/C (dose: 100.0 mg/kg/injection, schedule: Q01DX009 (ip), vehicle: Klucel (hydroxypropylcellulose) (HPC)) was 111 % of control.
In the case of `CCc1nc(N)nc(N)c1-c1ccc(N2CCCCC2)c([N+](=O)[O-])c1`, the T/C (dose: 3.13 mg/kg/injection, schedule: Q01DX009 (ip), vehicle: distilled water + Tween-80) was 104 % of control, the T/C (dose: 6.25 mg/kg/injection, schedule: Q01DX009 (ip), vehicle: distilled water + Tween-80) was 99 % of control and the T/C (dose: 12.5 mg/kg/injection, schedule: Q01DX009 (ip), vehicle: distilled water + Tween-80) was 95 % of control. For the same compound, the T/C (dose: 25.0 mg/kg/injection, schedule: Q01DX009 (ip), vehicle: distilled water + Tween-80) was 95 % of control, the T/C (dose: 50.0 mg/kg/injection, schedule: Q01DX009 (ip), vehicle: distilled water + Tween-80) was 99 % of control and 90 % of control and 92 % of control and the T/C [8] was 107 % of control and 86 % of control. For the same compound, the T/C [9] was 90 % of control.
`CC(C)(OC(=O)N=[N+]=[N-])c1ccc(N=Nc2ccccc2)cc1` was tested, and the T/C (dose: 50.0 mg/kg/injection, schedule: Q01DX009 (ip), vehicle: saline + alcohol) was 94 % of control, the T/C (dose: 100.0 mg/kg/injection, schedule: Q01DX009 (ip), vehicle: saline + alcohol) was 98 % of control and the T/C (dose: 200.0 mg/kg/injection, schedule: Q01DX009 (ip), vehicle: saline + alcohol) was 87 % of control.
For `Nc1nc(Cl)nc2c1ncn2C1OC(CO)C(O)C1O` (stereo not drawn), the T/C (dose: 3.1 mg/kg/injection, schedule: Q01DX010 (ip), vehicle: carboxymethylcellulose (CMC)) was 105 % of control, the T/C (dose: 6.2 mg/kg/injection, schedule: Q01DX010 (ip), vehicle: carboxymethylcellulose (CMC)) was 120 % of control and the T/C (dose: 25.0 mg/kg/injection, schedule: Q01DX010 (ip), vehicle: carboxymethylcellulose (CMC)) was 150 % of control.
In the case of `O/N=C/c1c(-c2ccccc2)nc2sccn12`, the T/C (dose: 100.0 mg/kg/injection, schedule: Q01DX001 (ip), vehicle: Klucel (hydroxypropylcellulose) (HPC)) was 94 % of control, the T/C (dose: 200.0 mg/kg/injection, schedule: Q01DX001 (ip), vehicle: Klucel (hydroxypropylcellulose) (HPC)) was 86 % of control and the T/C (dose: 400.0 mg/kg/injection, schedule: Q01DX001 (ip), vehicle: Klucel (hydroxypropylcellulose) (HPC)) was 94 % of control.
In the case of `O=C1C=CC(=O)N1n1cccc1`, the T/C [10] was 105 % of control, the T/C [11] was 98 % of control and the T/C [12] was 90 % of control.
In the case of `c1c[nH]c(C23CC4CC(CC(C4)C2)C3)n1`, the T/C [3] was 100 % of control, the T/C [4] was 100 % of control and the T/C [5] was 110 % of control and 94 % of control.
